# From ChEMBL document CHEMBL1201862, “PubChem BioAssay data set” (2004)
#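 Dose response: 5 concentrations. Exposure: 48 h. Format: 96-well plates. Endpoint: linear interpolation; highest concentration if not reached. GI50 marks 50% less growth.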 Active and inactive are the calls of the source. Rule as the data show it: active = GI50 up to about 1.1 µM and inactive = higher.
# Legend:
# Test in all cases: NCI anticancer screen, dose series, 48 h
# OVCAR-5 = system: OVCAR-5
# RXF 393 = system: RXF 393
# M14 = system: M14
# COLO 205 = system: COLO 205
# SK-OV-3 = system: SK-OV-3
# K562 = system: K562
# DMS-114 = system: DMS-114
# KM12 = system: KM12
# OVCAR-4 = system: OVCAR-4
# DU-145 = system: DU-145
# HOP-62 = system: HOP-62
# HOP-92 = system: HOP-92
# Malme-3M = system: Malme-3M
# OVCAR-8 = system: OVCAR-8
# SK-MEL-5 = system: SK-MEL-5
# SF-295 = system: SF-295
# MDA-MB-435 = system: MDA-MB-435
# A498 = system: A498
# SNB-19 = system: SNB-19
# T47D = system: T47D
Compound,GI50 (OVCAR-5),GI50 (RXF 393),GI50 (M14),GI50 (COLO 205),GI50 (SK-OV-3),GI50 (K562),GI50 (DMS-114),GI50 (KM12),GI50 (OVCAR-4),GI50 (DU-145),GI50 (HOP-62),GI50 (HOP-92),GI50 (Malme-3M),GI50 (OVCAR-8),GI50 (SK-MEL-5),GI50 (SF-295),GI50 (MDA-MB-435),GI50 (A498),GI50 (SNB-19),GI50 (T47D)
O=C1NC2C(=CC(O)C(O)C2O)c2cc3c(cc21)OCO3 (stereo unspecified),0.94 µM (active),0.154 µM (active),0.244 µM (active),0.2 µM (active),0.619 µM (active),0.34 µM (active),0.43 µM (active),0.272 µM (active),0.338 µM (active),0.056 µM (active),0.463 µM (active),0.904 µM (active),0.488 µM (active),0.233 µM (active),0.164 µM (active),0.582 µM (active),0.0951 µM (active),0.759 µM (active),0.244 µM (active),0.0964 µM (active)
Cc1ccc2c(C)c3ccc4ccccc4c3c[n+]2c1.[O-][Cl+3]([O-])([O-])[O-],51.3 µM (inactive),20.1 µM (inactive),17.9 µM (inactive),12.2 µM (inactive),17.7 µM (inactive),56.5 µM (inactive),10.6 µM (inactive),2.94 µM (inactive),16 µM (inactive),–,13.8 µM (inactive),17.9 µM (inactive),2.88 µM (inactive),10 µM (inactive),12 µM (inactive),23.1 µM (inactive),–,60 µM (inactive),6.46 µM (inactive),–
O=C1c2ccccc2C(=O)c2sc(Nc3ccc([N+](=O)[O-])cc3)nc21,13.7 µM (inactive),5.16 µM (inactive),2.54 µM (inactive),8.59 µM (inactive),21.7 µM (inactive),2.17 µM (inactive),2.49 µM (inactive),9.08 µM (inactive),4.4 µM (inactive),19.2 µM (inactive),13 µM (inactive),13.8 µM (inactive),6.25 µM (inactive),4.66 µM (inactive),2.39 µM (inactive),11.8 µM (inactive),–,17.2 µM (inactive),10.3 µM (inactive),2.18 µM (inactive)
